Read-outs that look alike come from different tables or passages of the source.

Experiment [1] has as its target opioid δ receptor (Rattus norvegicus (Rat), UniProt P33533). Briefly: Binding assay of opioid δ receptor ([3H]-DADLE, rat cerebrum membrane). The protocol:
(§1) 1) Method of Preparing Membrane Specimen for Binding Assay
(§2) A rat cerebrum (Slc: SD) which had been stored at −80° C. was used. To a cerebrum which had been weighed was added a 20-fold amount of ice-cooled 10 mM Tris-HCl buffer (pH 7.0), and the mixture was homogenized (25000 rpm, 30 seconds) with Histocolon (NITI-ON), and centrifuged at 36600×g for 20 minutes. To the resulting pellet was added 15 ml of the same buffer, and the mixture was treated with Histocolon similarly, and centrifuged. This washing work was performed two times. After centrifugation, to the resulting pellet was added 15 mL of a 50 mM Tris-HCl buffer (pH 7.4), and this was treated with Histocolon, and finally resuspended in a 10-fold amount of the same buffer, which was used as a crude membrane fraction (Life Sci. 48, 111-116, 1991). The prepared membrane specimen was frozen and stored at −80° C., and at an assay, the specimen was rapidly thawed, and diluted to about 900 μg/mL with a 50 mM Tris-HCl buffer (pH 7.4) after the centrifugation and Histocolon treatment, and was used in an experiment. For measuring a protein concentration of the membrane specimen, Micro BCA Protein Assay Kit (PIERCE) was used.
2) Method of δ Receptor Binding Assay and Data Analysis
Into a tube was placed 480 μl of a rat cerebrum membrane fraction to which 100 mM choline chloride, 3 mM MnCl2 and 100 nM DAMGO had been added, and this was incubated at 25° C. for 2 hours. […] After washing, the filter was transferred to a mini vial for liquid scintillation counter, 5 mL of a scintillator (Cleasol I) was added, this was allowed to stand overnight, and the radioactivity was measured for 3 minutes with a liquid scintillation counter Tri-Carb 2200CA (PACKARD).

Experiment [2] addresses opioid μ receptor (Rattus norvegicus (Rat), UniProt P33535). Briefly: Binding assay to opioid μ receptor ([3H]-DAMGO, rat cerebrum membrane). Here is the method: as §1
as §2, with “(pH 7.0), the mixture” for “(pH 7.0), and the mixture”, “(pH 7.4), this was” for “(pH 7.4), and this was”, “Histocolon, and this was finally resuspended” for “Histocolon, and finally resuspended”, “and at a test, the specimen” for “and at an assay, the specimen”
2) Method of μ Receptor Binding Assay and Data Analysis
After washing, the filter was transferred to a mini vial for liquid scintillation counter, 5 mL of a scintillator (Cleasol I) was added, and this was allowed to stand overnight, and the radioactivity was measured for 3 minutes with a liquid scintillation counter Tri-Carb 2200CA (PACKARD).

For experiment [3], the system named is carbon powder transport of inhibitory activity by morphine. In words: Mouse carbon powder transport assay (antagonism of morphine-inhibited small intestine transport). Conditions: sc, 1 h, test compound 3 mg/kg subcutaneously, 15 minutes before morphine 3 mg/kg. Type of experiment: in vivo. Here is the method: 1) Preparation of Test Diet (Carbon Powder)
Using a 10 w/v % arabic gum aqueous solution, a 5 w/v % active carbon solution was prepared, which was used as a test diet.
A ddY line male mouse (5 to 6 weeks old) was used. The mouse was fasted from about 20 or more hours before assay initiation, and water was given ad lib.
The test compound was dissolved in a solvent (DMAA/Solutol/5% meglumine=15/15/70).
Morphine hydrochloride was dissolved in a physiological saline. The test compound, the above solvent and morphine were all administered at a liquid amount of 10 mL/kg.
The test compound 3 mg/kg (test compound administration group) or the solvent (solvent administration group) were subcutaneously administered and, after 15 minutes, amount of 3 mg/kg of morphine was administered to all groups. As a control group, the solvent was subcutaneously administered and, after 15 minutes, a physiological saline was administered.
The test diet 10 mL/kg was orally administered at 15 minutes after administration of morphine. At thirty minutes after administration of the test diet (60 minutes after administration of the test substance), all mice were isolated from esophagus to an ileocecal part near a stomach cardia part. A distance from pyloric part of the stomach to an ileocecal part (full length of small intestine) and a distance until a carbon powder reaching front part (carbon powder movement distance) were measured. The antagonistic activity on the carbon powder transport of inhibitory activity by morphine was calculated as MPE (%) using the following equation. Transport rate (%)=(carbon powder movement distance)/full length of small intestine (cm))×100 M.P.E. (%)={(small intestine transport rate (%) of each individual of test compound administration group−average small intestine transport rate (%) of solvent administration group)/(average small intestine transport rate (%) of control group−average small intestine transport rate (%) of solvent administration group)}×100

[4] abbreviates: [3H]-DADLE, rat cerebrum membrane fraction, read-out: Ki.
[5] abbreviates: [3H]-DAMGO, rat cerebrum membrane fraction, read-out: Ki.

For orientation: Ki means a measure of affinity in units of concentration, obtained from inhibition or displacement. As for `CCCCNC(=O)C1=C(O)[C@@H]2Oc3c(O)ccc4c3[C@@]23CCN(CC2CC2)[C@H](C4)[C@]3(O)C1` [Compound I-3], in experiment [1], the affinity corresponds to a Ki of 8.76 nM.

Consider `CC(C)NC(=O)C1=C(O)[C@@H]2Oc3c(O)ccc4c3[C@@]23CCN(CC2CC2)[C@H](C4)[C@]3(O)C1` [Compound I-4, 7-Isopropylaminocarbonylnaltrexone], for which the inhibitory constant (Ki) is 7.38 nM in experiment [1] and 5.18 nM in experiment [2].

Turning to `O=C(C1=C(O)[C@@H]2Oc3c(O)ccc4c3[C@@]23CCN(CC2CC2)[C@H](C4)[C@]3(O)C1)N1CCCC1` [Compound I-7], in experiment [1], the inhibitory constant (Ki) is 7.4 nM.

As for `O=C(Nc1ccccc1)C1=C(O)[C@@H]2Oc3c(O)ccc4c3[C@@]23CCN(CC2CC2)[C@H](C4)[C@]3(O)C1` [Compound I-10], the values for the Ki in experiment [1] and in experiment [2] were 19.9 nM and 4.05 nM, respectively.

`CN(Cc1ccccc1)C(=O)C1=C(O)[C@@H]2Oc3c(O)ccc4c3[C@@]23CCN(CC2CC2)[C@H](C4)[C@]3(O)C1` [Compound I-13] displayed an inhibition constant Ki in experiment [1] of 5.02 nM.

As for `O=C(NCCOc1ccccc1)C1=C(O)[C@@H]2Oc3c(O)ccc4c3[C@@]23CCN(CC2CC2)[C@H](C4)[C@]3(O)C1` [Compound I-30], the inhibition constant (Ki) in experiment [1] was determined as 5.34 nM.

For the compound `CN(C)c1ccc(NC(=O)C2=C(O)[C@@H]3Oc4c(O)ccc5c4[C@@]34CCN(CC3CC3)[C@H](C5)[C@]4(O)C2)cc1` [Compound I-39], the Ki in experiment [1] is 41.8 nM; in experiment [2] it was 0.33 nM. In addition, in experiment [3], the percent antagonism of morphine-inhibited transport (M.P.E.) at 3 mg/kg turned out to be 52%.

As to `COC(=O)C(C)(C)NC(=O)C1=C(O)[C@@H]2Oc3c(O)ccc4c3[C@@]23CCN(CC2CC2)[C@H](C4)[C@]3(O)C1` [Compound I-49], the Ki in experiment [1] (setting [4]) worked out at 3.99 nM; in experiment [2], 16.5 nM. For the same compound, the percent antagonism of morphine-inhibited transport (M.P.E.) at 3 mg/kg in experiment [3] worked out at 80%.

Compound `O=C(Nc1cccnc1)C1=C(O)[C@@H]2Oc3c(O)ccc4c3[C@@]23CCN(CC2CC2)[C@H](C4)[C@]3(O)C1` [Compound I-92] showed a Ki in experiment [1] of 5.23 nM.

For `COc1ccc(NC(=O)C2=C(O)[C@@H]3Oc4c(O)ccc5c4[C@@]34CCN(CC3CC3)[C@H](C5)[C@]4(O)C2)cn1` [Compound I-118], the percent antagonism of morphine-inhibited transport (M.P.E.) at 3 mg/kg in experiment [3] came to 55.6%.

Turning to `O=C(NS(=O)(=O)c1cccc(Cl)c1)C1=C(O)[C@@H]2Oc3c(O)ccc4c3[C@@]23CCN(CC2CC2)[C@H](C4)[C@]3(O)C1` [Compound I-122], the inhibition constant Ki in experiment [2] (setting [5]) is 2.7 nM. Further, in experiment [3], the percent antagonism of morphine-inhibited transport (M.P.E.) at 3 mg/kg worked out at 31.5%.

With `COc1ccc(S(=O)(=O)NC(=O)C2=C(O)[C@@H]3Oc4c(O)ccc5c4[C@@]34CCN(CC3CC3)[C@H](C5)[C@]4(O)C2)cc1` [Compound I-123], the Ki in experiment [2] (setting [5]) was found to be 1.68 nM. For the same compound, the percent antagonism of morphine-inhibited transport (M.P.E.) at 3 mg/kg in experiment [3] is 44.1%.

Turning to `O=C(NS(=O)(=O)c1ccc(F)cc1)C1=C(O)[C@@H]2Oc3c(O)ccc4c3[C@@]23CCN(CC2CC2)[C@H](C4)[C@]3(O)C1` [Compound I-124], the inhibition constant (Ki) in experiment [2] (read-out: Ki) is 3.9 nM. In addition, in experiment [3], the percent antagonism of morphine-inhibited transport (M.P.E.) at 3 mg/kg amounted to 46.6%.

In the case of `COC(=O)C1(NC(=O)C2=C(O)[C@@H]3Oc4c(O)ccc5c4[C@@]34CCN(CC3CC3)[C@H](C5)[C@]4(O)C2)CCCC1` [Compound I-133], the Ki was 9.85 nM in experiment [1] (setting [4]) and 4.99 nM in experiment [2] (setting [5]). Besides, the percent antagonism of morphine-inhibited transport (M.P.E.) at 3 mg/kg in experiment [3] was found to be 107%.

Turning to `COC(=O)C1(NC(=O)C2=C(O)[C@@H]3Oc4c(O)ccc5c4[C@@]34CCN(CC3CC3)[C@H](C5)[C@]4(O)C2)CC1` [Compound I-135], the values for the Ki in experiment [1] (read-out: Ki) and in experiment [2] (read-out: Ki) were 9.76 nM and 1.58 nM, respectively. Besides, in experiment [3], the percent antagonism of morphine-inhibited transport (M.P.E.) at 3 mg/kg stood at 59.7%.

For the compound `Cc1cc(NC(=O)C2=C(O)[C@@H]3Oc4c(O)ccc5c4[C@@]34CCN(CC3CC3)[C@H](C5)[C@]4(O)C2)on1` [Compound I-138], in experiment [2] (setting [5]), the inhibitory constant (Ki) is 15.5 nM. Moreover, in experiment [3], the percent antagonism of morphine-inhibited transport (M.P.E.) at 3 mg/kg was determined as 55.8%.

As for `O=C(N[C@H]1CCOC1=O)C1=C(O)[C@@H]2Oc3c(O)ccc4c3[C@@]23CCN(CC2CC2)[C@H](C4)[C@]3(O)C1` [Compound I-145], the Ki in experiment [1] (setting [4]) was 13.9 nM; in experiment [2] (setting [5]) it was 28.1 nM. The percent antagonism of morphine-inhibited transport (M.P.E.) at 3 mg/kg in experiment [3] is 60.2%.

Consider `O=C(Nc1cccc(C(=O)O)c1)C1=C(O)[C@@H]2Oc3c(O)ccc4c3[C@@]23CCN(CC2CC2)[C@H](C4)[C@]3(O)C1` [Compound I-188], for which the Ki in experiment [1] is 3.01 nM; in experiment [2] it was 17.3 nM. In addition, in experiment [3], the percent antagonism of morphine-inhibited transport (M.P.E.) at 3 mg/kg came out at 74.6%.

On to `COC(=O)C1(NC(=O)C2=C(O)[C@@H]3Oc4c(O)ccc5c4[C@@]34CCN(CC3CC3)[C@H](C5)[C@]4(O)C2)CCC1` [Compound I-199], for which the inhibition constant (Ki) in experiment [1] amounted to 12.8 nM; in experiment [2] it was 9.45 nM. The percent antagonism of morphine-inhibited transport (M.P.E.) at 3 mg/kg in experiment [3] turned out to be 62.8%.

Consider `O=C(Nc1ccc([N+](=O)[O-])cn1)C1=C(O)[C@@H]2Oc3c(O)ccc4c3[C@@]23CCN(CC2CC2)[C@H](C4)[C@]3(O)C1` [Compound I-208], for which the Ki in experiment [1] worked out at 13.3 nM; in experiment [2], 5.89 nM. In experiment [3], the percent antagonism of morphine-inhibited transport (M.P.E.) at 3 mg/kg turned out to be 81.2%.

Turning to `CCN(CC)S(=O)(=O)c1ccc(OC)c(NC(=O)C2=C(O)[C@@H]3Oc4c(O)ccc5c4[C@@]34CCN(CC3CC3)[C@H](C5)[C@]4(O)C2)c1` [Compound I-229], the Ki amounted to 5.9 nM in experiment [1] and 1.3 nM in experiment [2] (setting [5]). The percent antagonism of morphine-inhibited transport (M.P.E.) at 3 mg/kg in experiment [3] is 39.7%.

For the compound `Cc1cc(=O)[nH]c2cc(NC(=O)C3=C(O)[C@@H]4Oc5c(O)ccc6c5[C@@]45CCN(CC4CC4)[C@H](C6)[C@]5(O)C3)ccc12` [Compound I-240], the Ki in experiment [1] was 11.5 nM; in experiment [2] (setting [5]), 6.85 nM. Moreover, the percent antagonism of morphine-inhibited transport (M.P.E.) at 3 mg/kg in experiment [3] stood at 36.3%.

In the case of `COc1cc(NC(=O)C2=C(O)[C@@H]3Oc4c(O)ccc5c4[C@@]34CCN(CC3CC3)[C@H](C5)[C@]4(O)C2)ncn1` [Compound I-243], the inhibition constant (Ki) in experiment [1] stood at 5.2 nM; in experiment [2], 5.28 nM. Further, the percent antagonism of morphine-inhibited transport (M.P.E.) at 3 mg/kg in experiment [3] turned out to be 52.6%.

In the case of `CC(C)NC(=O)C1=C(NS(=O)(=O)c2ccc(Cl)cc2)[C@@H]2Oc3c(O)ccc4c3[C@@]23CCN(CC2CC2)[C@H](C4)[C@]3(O)C1` [Compound I-244], the percent antagonism of morphine-inhibited transport (M.P.E.) at 3 mg/kg in experiment [3] is 71.6%.

`Cc1ccc2nc(=O)c3c(n2c1)[C@@H]1Oc2c(O)ccc4c2[C@@]12CCN(CC1CC1)[C@H](C4)[C@]2(O)C3` [Compound I-267]: the results for the inhibitory constant (Ki) in experiment [1] (setting [4]) and in experiment [2] (setting [5]) were 41.5 nM and 0.84 nM, respectively. The percent antagonism of morphine-inhibited transport (M.P.E.) at 3 mg/kg in experiment [3] is 60%.

Turning to `COCC1(NC(=O)C2=C(O)[C@@H]3Oc4c(O)ccc5c4[C@@]34CCN(CC3CC3)[C@H](C5)[C@]4(O)C2)CC1` [Compound I-283], the Ki came to 3.73 nM in experiment [1] and 20.1 nM in experiment [2]. Further, the percent antagonism of morphine-inhibited transport (M.P.E.) at 3 mg/kg in experiment [3] was 63.7%.

The record behind these values is patent US8536192B2, “6,7-unsaturated-7-carbamoyl substituted morphinan derivative” (priority 2005, dated 2013).
